# Source: PubChem BioAssay (NCI)
#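 Each compound was tested at five concentrations against cells in 96-well plates for 48 hours. At the TGI there is no net growth.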
# Columns and labels:
# Assay in all cases: growth of human tumour cells (NCI), 48 h
# A498 renal = test system: A498 renal
# CCRF-CEM leukemia = test system: CCRF-CEM leukemia
# OVCAR-4 ovarian = test system: OVCAR-4 ovarian
# PC-3 prostate = test system: PC-3 prostate
# HT29 colon = test system: HT29 colon
# HCC-2998 colon = test system: HCC-2998 colon
# NCI/ADR-RES ovarian = test system: NCI/ADR-RES ovarian
# UACC-257 melanoma = test system: UACC-257 melanoma
# CAKI-1 renal = test system: CAKI-1 renal
# UO-31 renal = test system: UO-31 renal
# SK-MEL-28 melanoma = test system: SK-MEL-28 melanoma
# M14 melanoma = test system: M14 melanoma
# SK-MEL-2 melanoma = test system: SK-MEL-2 melanoma
# SN12C renal = test system: SN12C renal
# MCF7 breast = test system: MCF7 breast
# SW-620 colon = test system: SW-620 colon
# U251 CNS = test system: U251 CNS
# 786-0 renal = test system: 786-0 renal
# HOP-92 NSCLC = test system: HOP-92 NSCLC
# SK-MEL-5 melanoma = test system: SK-MEL-5 melanoma
# NCI-H460 lung = test system: NCI-H460 lung
# ACHN renal = test system: ACHN renal
# SF-268 CNS = test system: SF-268 CNS
# HCT-116 colon = test system: HCT-116 colon
# IGROV1 ovarian = test system: IGROV1 ovarian
# HL-60(TB) leukemia = test system: HL-60(TB) leukemia
# MDA-N = test system: MDA-N
# MDA-MB-231 breast = test system: MDA-MB-231 breast
# RPMI-8226 leukemia = test system: RPMI-8226 leukemia
# A549 NSCLC = test system: A549 NSCLC
# COLO 205 colon = test system: COLO 205 colon
# LOX IMVI melanoma = test system: LOX IMVI melanoma
# DU-145 prostate = test system: DU-145 prostate
# NCI-H522 lung = test system: NCI-H522 lung
# BT-549 breast = test system: BT-549 breast
# OVCAR-8 ovarian = test system: OVCAR-8 ovarian
# TK-10 renal = test system: TK-10 renal
# EKVX NSCLC = test system: EKVX NSCLC
# SF-539 CNS = test system: SF-539 CNS
# SNB-19 CNS = test system: SNB-19 CNS
# NCI-H23 lung = test system: NCI-H23 lung
# MOLT-4 leukemia = test system: MOLT-4 leukemia
# SF-295 CNS = test system: SF-295 CNS
# OVCAR-5 ovarian = test system: OVCAR-5 ovarian
# SR leukemia = test system: SR leukemia
# MDA-MB-435 = test system: MDA-MB-435
# OVCAR-3 ovarian = test system: OVCAR-3 ovarian
# HCT-15 colon = test system: HCT-15 colon
# HOP-62 NSCLC = test system: HOP-62 NSCLC
# UACC-62 melanoma = test system: UACC-62 melanoma
# HS 578T breast = test system: HS 578T breast
# KM12 colon = test system: KM12 colon
# T-47D breast = test system: T-47D breast
# SK-OV-3 ovarian = test system: SK-OV-3 ovarian
# RXF 393 renal = test system: RXF 393 renal
# K-562 leukemia = test system: K-562 leukemia
# NCI-H226 lung = test system: NCI-H226 lung
# SNB-75 CNS = test system: SNB-75 CNS
structure (smiles),measurement,setting,value
COC1CC2C=CC3C4OC2(/C(C)=C/C(C)C(C(C)O)OC1=O)C3C(O)C(C)C4OC(=O)c1ccc[nH]1 (configuration not stated),TGI,A498 renal,> 100 µM
same,TGI,CCRF-CEM leukemia,> 100 µM
same,TGI,OVCAR-4 ovarian,> 100 µM
same,TGI,PC-3 prostate,> 100 µM
same,TGI,HT29 colon,> 100 µM
same,TGI,HCC-2998 colon,> 100 µM
same,TGI,NCI/ADR-RES ovarian,> 100 µM
same,TGI,UACC-257 melanoma,> 100 µM
same,TGI,CAKI-1 renal,> 100 µM
same,TGI,UO-31 renal,> 100 µM
same,TGI,SK-MEL-28 melanoma,> 100 µM
same,TGI,M14 melanoma,> 100 µM
same,TGI,SK-MEL-2 melanoma,> 100 µM
same,TGI,SN12C renal,> 100 µM
same,TGI,MCF7 breast,> 100 µM
same,TGI,SW-620 colon,> 100 µM
same,TGI,U251 CNS,> 100 µM
same,TGI,786-0 renal,> 100 µM
same,TGI,HOP-92 NSCLC,> 100 µM
same,TGI,SK-MEL-5 melanoma,> 100 µM
same,TGI,NCI-H460 lung,> 100 µM
same,TGI,ACHN renal,> 100 µM
same,TGI,SF-268 CNS,> 100 µM
same,TGI,HCT-116 colon,> 100 µM
same,TGI,IGROV1 ovarian,> 100 µM
same,TGI,HL-60(TB) leukemia,63.3 µM
same,TGI,MDA-N,> 100 µM
same,TGI,MDA-MB-231 breast,> 100 µM
same,TGI,RPMI-8226 leukemia,> 100 µM
same,TGI,A549 NSCLC,> 100 µM
same,TGI,COLO 205 colon,> 100 µM
same,TGI,LOX IMVI melanoma,> 100 µM
same,TGI,DU-145 prostate,> 100 µM
same,TGI,NCI-H522 lung,> 100 µM
same,TGI,BT-549 breast,> 100 µM
same,TGI,OVCAR-8 ovarian,> 100 µM
same,TGI,TK-10 renal,> 100 µM
same,TGI,EKVX NSCLC,> 100 µM
same,TGI,SF-539 CNS,> 100 µM
same,TGI,SNB-19 CNS,> 100 µM
same,TGI,NCI-H23 lung,> 100 µM
same,TGI,MOLT-4 leukemia,71.2 µM
same,TGI,SF-295 CNS,> 100 µM
same,TGI,OVCAR-5 ovarian,> 100 µM
same,TGI,SR leukemia,77 µM
same,TGI,MDA-MB-435,> 100 µM
same,TGI,OVCAR-3 ovarian,> 100 µM
same,TGI,HCT-15 colon,> 100 µM
same,TGI,HOP-62 NSCLC,> 100 µM
same,TGI,UACC-62 melanoma,> 100 µM
same,TGI,HS 578T breast,> 100 µM
same,TGI,KM12 colon,> 100 µM
same,TGI,T-47D breast,> 100 µM
c1ccc(/N=C2\c3ccccc3CN2c2ccccn2)nc1,TGI,A498 renal,> 100 µM
same,TGI,SK-OV-3 ovarian,> 100 µM
same,TGI,OVCAR-4 ovarian,> 100 µM
same,TGI,PC-3 prostate,> 100 µM
same,TGI,HT29 colon,> 100 µM
same,TGI,HCC-2998 colon,> 100 µM
same,TGI,UACC-257 melanoma,> 100 µM
same,TGI,CAKI-1 renal,> 100 µM
same,TGI,UO-31 renal,> 100 µM
same,TGI,SK-MEL-28 melanoma,> 100 µM
same,TGI,M14 melanoma,> 100 µM
same,TGI,SK-MEL-2 melanoma,> 100 µM
same,TGI,SN12C renal,> 100 µM
same,TGI,MCF7 breast,> 100 µM
same,TGI,SW-620 colon,> 100 µM
same,TGI,U251 CNS,> 100 µM
same,TGI,786-0 renal,> 100 µM
same,TGI,HOP-92 NSCLC,72.7 µM
same,TGI,SK-MEL-5 melanoma,> 100 µM
same,TGI,NCI-H460 lung,> 100 µM
same,TGI,ACHN renal,> 100 µM
same,TGI,SF-268 CNS,> 100 µM
same,TGI,HCT-116 colon,> 100 µM
same,TGI,IGROV1 ovarian,> 100 µM
same,TGI,MDA-N,> 100 µM
same,TGI,MDA-MB-231 breast,> 100 µM
same,TGI,RPMI-8226 leukemia,> 100 µM
same,TGI,A549 NSCLC,> 100 µM
same,TGI,COLO 205 colon,> 100 µM
same,TGI,LOX IMVI melanoma,> 100 µM
same,TGI,DU-145 prostate,> 100 µM
same,TGI,NCI-H522 lung,> 100 µM
same,TGI,BT-549 breast,> 100 µM
same,TGI,OVCAR-8 ovarian,> 100 µM
same,TGI,RXF 393 renal,> 100 µM
same,TGI,TK-10 renal,> 100 µM
same,TGI,EKVX NSCLC,> 100 µM
same,TGI,SF-539 CNS,> 100 µM
same,TGI,SNB-19 CNS,> 100 µM
same,TGI,K-562 leukemia,> 100 µM
same,TGI,NCI-H23 lung,> 100 µM
same,TGI,MOLT-4 leukemia,> 100 µM
same,TGI,SF-295 CNS,> 100 µM
same,TGI,OVCAR-5 ovarian,> 100 µM
same,TGI,MDA-MB-435,> 100 µM
same,TGI,OVCAR-3 ovarian,> 100 µM
same,TGI,HCT-15 colon,> 100 µM
same,TGI,HOP-62 NSCLC,> 100 µM
same,TGI,UACC-62 melanoma,> 100 µM
same,TGI,HS 578T breast,> 100 µM
same,TGI,NCI-H226 lung,> 100 µM
same,TGI,KM12 colon,> 100 µM
same,TGI,SNB-75 CNS,> 100 µM
same,TGI,T-47D breast,77.2 µM
